Laboratory results published in patent US20180360072A1 (priority 2017, published 2018).
Read-outs that look alike come from different tables or passages of the source.

Experiments:
C. jejuni = C. jejuni in vitro growth inhibition in BHI broth (OD600); assay type: cell-based, Campylobacter jejuni; details: 1 mM, 48 hours in BHI broth; for C. jejuni growth, OD600: microaerobic, without bile acid 0.153
Description: To evaluate bile acids on C. jejuni growth, the bacterium was inoculated in BHI broth. The medium was also added final concentration of 0, 0.2, 0.5, and 1 mM DCA, and 1 mM TCA and CA. After 48-hour culture under microaerobic condition, the bacterium growth was measured at OD600.

C. perfringens [1] = experiment: microbe, parasite or virus in culture; assay type: cell-based, Clostridium perfringens
[2] = test system: E. maxima and C. perfringens; assay type: in vivo, broiler chicks
[3] = test system: E. maxima and C. perfringens; assay type: in vivo, broiler chicks; remark: listed apart in the source
Infγ, Tnfα and Mmp9 mRNA = test system: Infγ, Tnfα and Mmp9 mRNA; set-up: species or system broiler chicks; details: in vivo
[4] = Broiler growth performance (body weight gain, feed conversion ratio) on DCA diet; assay type: in vivo, broiler chicks
[5] = test system: C. perfringens 16S, Cpb and Virx mRNA; set-up: species or system broiler chicks; details: in vivo
Ptgs2 and Atp6vg1 mRNA = experiment: Host response gene mRNA accumulation in ileal tissue (real time PCR); assay type: in vivo; details: DCA diet; chicken ileal tissue; normalized to Gapdh
Description: Total RNA from chicken intestinal tissue was extracted using TRIzol (Invitrogen, Carlsbad, Calif.). Briefly, after bead beater disruption in TRIzol and chloroform and centrifugation, supernatant was precipitated with isopropanol. The pelleted RNA was washed once with 75% ethanol. The final RNA was dissolved in DNase/RNase free water and stored in −80° C. freezer. Complementary DNA was prepared using M-MLV (NEB).
Messenger RNA levels of proinflammatory genes were determined using SYBR Green PCR Master Mix (Bio-Rad, Hercules, Calif.) on an Bio-Rad 384-well Real-Time PCR System and normalized to Gapdh. The polymerase chain reactions were performed on 384-well real time PCR machine (Bio-Rad, Hercules, Calif.) according to the manufacturer's recommendation. […]

C. perfringens [6] = assay type: in vivo, broiler chicks; details: DCA birds vs NE control birds; 16S rDNA real time PCR
C. jejuni strain 81-176 = experiment: C. jejuni 81-176 cecal colonization in broiler chicks fed DCA diet; assay type: in vivo; details: 1.5 g/kg DCA diet, 10^9 CFU/chick C. jejuni 81-176 at 14 days of age
[7] = Separate growth experiment, 26 days: body weight gain and ileal fat and nitrogen levels; assay type: in vivo, broiler chicks; details: 1.5 g/kg feed DCA diet for 26 days vs basal diet
Description: In a separate experiment, birds were fed diet supplementing with DCA at 1.5 g/kg feed. After 26 days the birds were weighed and sacrificed and ileal content were collected. The dry matter (DM), crude fat, and nitrogen levels in the ileal content was analyzed at the Central Analytical Lab at Department of Poultry Science at University of Arkansas at Fayetteville, Ark.

C[C@H](CCC(=O)NCCS(=O)(=O)O)[C@H]1CC[C@H]2[C@@H]3[C@H](O)C[C@@H]4C[C@H](O)CC[C@]4(C)[C@H]3C[C@H](O)[C@]12C [TCA, taurocholic acid, reference compound]
effect on C. jejuni growth (C. jejuni): failed to inhibit C. jejuni growth | C. jejuni growth, OD600 (C. jejuni): 0.197 | inhibition of C. perfringens growth (C. perfringens [1]): failed to prevent its growth

C[C@H](CCC(=O)O)[C@H]1CC[C@H]2[C@@H]3[C@H](O)C[C@@H]4C[C@H](O)CC[C@]4(C)[C@H]3C[C@H](O)[C@]12C [CA, cholic acid]
NE-induced intestinal inflammation and histopathology score ([2]; in vivo): reduces bird NE intestinal inflammation | effect on C. jejuni growth (C. jejuni): failed to inhibit C. jejuni growth | C. jejuni growth, OD600 (C. jejuni): 0.19 | productivity / body weight gain loss at NE phase ([3]; in vivo): attenuated body weight gain loss | productivity / body weight gain loss at coccidiosis phase ([3]; in vivo): failed | inhibition at 1000 µM (C. perfringens [1]; Clostridium perfringens, 1 mM, read-out: inhibition of C. perfringens growth): 30%

C[C@H](CCC(=O)O)[C@H]1CC[C@H]2[C@@H]3CC[C@@H]4C[C@H](O)CC[C@]4(C)[C@H]3C[C@H](O)[C@]12C [DCA, deoxycholic acid]
NE-induced intestinal inflammation and histopathology score ([2]; 1.5 g/kg diet, upper ileum, H&E, vs NE control birds): significantly attenuated | attenuation of NE-induced Infγ mRNA accumulation (Infγ, Tnfα and Mmp9 mRNA): 51% | attenuation of NE-induced Mmp9 mRNA accumulation (Infγ, Tnfα and Mmp9 mRNA): 66% | attenuation of NE-induced Tnfα mRNA accumulation (Infγ, Tnfα and Mmp9 mRNA): 82% | accumulative feed conversion ratio improvement compared to control diet [4]: 16.6% | body weight gain increase compared to control diet ([4]; at 28 days of age): 11.9% | body weight gain ([4]; at 28 days of age, control diet 2.86): 3.20 lb | accumulative feed conversion ratio ([4]; control diet 1.81, lower value means better feed efficiency): 1.51 | effect on C. jejuni growth (C. jejuni): slightly enhanced but not inhibit C. jejuni growth | C. jejuni growth, OD600 (C. jejuni): 0.213 | block of C. perfringens 16S mRNA accumulation [5]: 97% | block of C. perfringens Cpb mRNA accumulation [5]: 61% | block of C. perfringens Virx mRNA accumulation [5]: 61% | productivity / body weight gain loss at coccidiosis phase ([3]; 1.5 g/kg diet, d 18-23, compared to Em and NE control birds): prevented productivity loss | productivity / body weight gain loss at NE phase ([3]; 1.5 g/kg diet, d 23-26, compared to NE control birds): prevented productivity loss | growth performance on body weight gain and feed efficiency before infection ([3]; 1.5 g/kg diet, during 1-14 and 14-18 days of age, compared to birds fed other diets): promoted bird growth performance on body weight gain (FIG. 9A) and feed efficiency | Atp6vg1 mRNA accumulation change compared to control diet (Ptgs2 and Atp6vg1 mRNA): +40% | Ptgs2 mRNA accumulation change compared to control diet (Ptgs2 and Atp6vg1 mRNA): +92% | ileal luminal C. perfringens load (C. perfringens [6]): not significantly different from NE control birds | inhibition of C. perfringens growth (C. perfringens [1]; 0.4 mM, TSB, overnight, anaerobic, OD600): 87% | C. jejuni colonization level in ceca (C. jejuni strain 81-176; 2 days PI): 0 CFU/g | C. jejuni colonization level in ceca (C. jejuni strain 81-176; 7 days PI): 9.0×10^2 CFU/g | C. jejuni colonization level in ceca (C. jejuni strain 81-176; 14 days PI): 0 CFU/g | growth performance on body weight gain [7]: promoted bird growth performance on body weight gain
